Assay results published in ChEMBL document CHEMBL1201862, “PubChem BioAssay data set” (2004).
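Following 48 hours of exposure in 96-well plates, responses at five concentrations were used to interpolate endpoints linearly. GI50 = concentration required for 50% inhibition of growth.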 Calls of active or inactive are those of the source. Cut-off read from the data, not from the text of the source: active = GI50 up to about 1.1 µM and inactive = higher.

Columns and labels:
Test in all cases: inhibition of tumour cell growth, NCI panel, 48 h
UACC-62 = tested on: UACC-62
NCI-H522 = tested on: NCI-H522
HT-29 = tested on: HT-29
CAKI-1 = tested on: CAKI-1
CCRF-CEM = tested on: CCRF-CEM
SF-539 = tested on: SF-539
MDA-MB-231 = tested on: MDA-MB-231
MDA-MB-435 = tested on: MDA-MB-435
SNB-19 = tested on: SNB-19
SK-OV-3 = tested on: SK-OV-3
SK-MEL-5 = tested on: SK-MEL-5
RXF 393 = tested on: RXF 393
SF-268 = tested on: SF-268
RPMI-8226 = tested on: RPMI-8226
HOP-92 = tested on: HOP-92
UO-31 = tested on: UO-31
HCT-15 = tested on: HCT-15
HCT-116 = tested on: HCT-116
DMS-273 = tested on: DMS-273
DMS-114 = tested on: DMS-114

Compound | GI50 (UACC-62) | GI50 (NCI-H522) | GI50 (HT-29) | GI50 (CAKI-1) | GI50 (CCRF-CEM) | GI50 (SF-539) | GI50 (MDA-MB-231) | GI50 (MDA-MB-435) | GI50 (SNB-19) | GI50 (SK-OV-3) | GI50 (SK-MEL-5) | GI50 (RXF 393) | GI50 (SF-268) | GI50 (RPMI-8226) | GI50 (HOP-92) | GI50 (UO-31) | GI50 (HCT-15) [µM] | GI50 (HCT-116) | GI50 (DMS-273) | GI50 (DMS-114)
O=C1C2=C(C(=O)c3c(O)ccc(O)c31)[C@@H](O)[C@@H](O)[C@@H](O)C2 | 3.52 µM (inactive) | 0.367 µM (active) | 1.32 µM (inactive) | 1.37 µM (inactive) | 0.0486 µM (active) | 3.71 µM (inactive) | 2.14 µM (inactive) | 1.57 µM (inactive) | 13.1 µM (inactive) | 18.2 µM (inactive) | 1.74 µM (inactive) | 1.85 µM (inactive) | 2.78 µM (inactive) | 1.02 µM (active) | 1.34 µM (inactive) | 4.66 µM (inactive) | 2.76 | 0.47 µM (active) | – | –
CS[C@]12[C@@H]3C(=O)N(C)C(=O)[C@@H]3[C@](C)(C(=O)N1C)C(=O)N2c1ccccc1 | > 100 µM (inactive) | > 100 µM (inactive) | > 100 µM (inactive) | > 100 µM (inactive) | > 100 µM (inactive) | > 100 µM (inactive) | > 100 µM (inactive) | > 100 µM (inactive) | > 100 µM (inactive) | > 100 µM (inactive) | > 100 µM (inactive) | > 100 µM (inactive) | > 100 µM (inactive) | > 100 µM (inactive) | > 100 µM (inactive) | > 100 µM (inactive) | > 100 | > 100 µM (inactive) | – | –
COC(=O)C(Cc1nc2ccc(Cl)cc2nc1O)C(=O)C(=O)Nc1cc(C)ccc1C (configuration not stated) | > 100 µM (inactive) | > 100 µM (inactive) | > 100 µM (inactive) | > 100 µM (inactive) | > 100 µM (inactive) | > 100 µM (inactive) | – | – | > 100 µM (inactive) | > 100 µM (inactive) | > 100 µM (inactive) | > 100 µM (inactive) | > 100 µM (inactive) | > 100 µM (inactive) | – | > 100 µM (inactive) | > 100 | > 100 µM (inactive) | > 100 µM (inactive) | > 100 µM (inactive)
CC(=O)NNc1nc(C)c(C(/C=C/c2ccc(/C=C/C(=N\NC(=O)c3ccncc3)c3sc(NNC(C)=O)nc3C)cc2)=N/NC(=O)c2ccncc2)s1 | > 100 µM (inactive) | – | > 100 µM (inactive) | > 100 µM (inactive) | > 100 µM (inactive) | > 100 µM (inactive) | – | – | > 100 µM (inactive) | > 100 µM (inactive) | > 100 µM (inactive) | > 100 µM (inactive) | > 100 µM (inactive) | > 100 µM (inactive) | 54 µM (inactive) | > 100 µM (inactive) | > 100 | > 100 µM (inactive) | – | > 100 µM (inactive)
CC(=O)Nc1[nH]c(=O)[nH]c(=O)c1N(C(C)=O)C(C)=O | > 100 µM (inactive) | – | > 100 µM (inactive) | > 100 µM (inactive) | > 100 µM (inactive) | > 100 µM (inactive) | – | – | > 100 µM (inactive) | – | > 100 µM (inactive) | > 100 µM (inactive) | > 100 µM (inactive) | > 100 µM (inactive) | > 100 µM (inactive) | > 100 µM (inactive) | > 100 | > 100 µM (inactive) | > 100 µM (inactive) | > 100 µM (inactive)
S=C1N=C2C(=N1)n1c3c(c4ccccc41)CCCC23 (configuration not stated) | 59.2 µM (inactive) | 22.1 µM (inactive) | 35.1 µM (inactive) | 42.4 µM (inactive) | 48.6 µM (inactive) | 43.3 µM (inactive) | 66.4 µM (inactive) | 55.7 µM (inactive) | 56.8 µM (inactive) | > 100 µM (inactive) | 36.8 µM (inactive) | > 100 µM (inactive) | 49 µM (inactive) | 30 µM (inactive) | > 100 µM (inactive) | 60.5 µM (inactive) | 46.3 | 35.2 µM (inactive) | – | –
Clc1cc(Cl)cc(Nc2nc3ccccc3nc2-c2cccs2)c1 | > 10 µM (inactive) | – | 14 µM (inactive) | – | > 100 µM (inactive) | 36.1 µM (inactive) | – | – | > 10 µM (inactive) | 31.3 µM (inactive) | – | 17.1 µM (inactive) | 34 µM (inactive) | 40 µM (inactive) | 12.4 µM (inactive) | 42.6 µM (inactive) | > 100 | 18.5 µM (inactive) | 14.2 µM (inactive) | –
O=C(O)CN(c1ccccc1)S(=O)(=O)c1ccc([N+](=O)[O-])cc1 | > 100 µM (inactive) | > 100 µM (inactive) | > 100 µM (inactive) | > 100 µM (inactive) | > 100 µM (inactive) | > 100 µM (inactive) | – | – | > 100 µM (inactive) | > 100 µM (inactive) | > 100 µM (inactive) | > 100 µM (inactive) | – | > 100 µM (inactive) | > 100 µM (inactive) | > 100 µM (inactive) | > 100 | – | > 100 µM (inactive) | –
